# US4742045A, “Glycopeptide antibiotics” (SmithKline Beckman Corporation, priority 1986, dated 1988)
# Tests used:
# S. aureus = experiment: mice infected intraperitoneally, dosed 1 hr after infection, ED50; type: in vivo; details: antibiotic i.v. 1 hr post infection
# Method: The in vivo activity of the CWI-785 complex and its components and hydrolysis products was confirmed by administering selected CWI-785 antibiotics to mice infected with various gram-positive pathogens. In one representative assay, in which mice infected intraperitoneally with 46.8 LD50 's of S. aureus (strain 1, Tables 1 and 2) were dosed once, subcutaneously one hour after infection, the following ED50 's (mg/kg) were observed: CWI-785B: 2.4, CWI-785C: 3.1, CWI-785: 3.8, HPB3: 0.9, vancomycin: 0.7. In a second representative assay carried out as above except that mice were infected with 3.17 LD50 's of S. faecalis (strain 9, Table 2), the following ED50 's were observed: HPB3 hydrochloride: 1.6, HPB4 hydrochloride: 1.6, vancomycin: 2.2, teicoplanin: 1.3.
# (§1) In Table 6, below, is shown the ED50 in mg/kg of HPB4 in comparison to vancomycin and teicoplanin. Mice were injected i.p. with the indicated organism and then i.v., 1 hr post infection, with the indicated antibiotic.
# S. haemolyticus = experiment: mice infected i.p., antibiotic i.v. 1 hr post infection, ED50; type: in vivo; details: S. haemolyticus 651 (8 × LD50) i.p., antibiotic i.v. 1 hr post infection
# Method: as §1
# S. epidermidis = experiment: as above; type: in vivo; details: S. epidermidis 2479 (>1000 × LD50) i.p., antibiotic i.v. 1 hr post infection
# Method: as §1
# Group B Strep. = experiment: MIC against an expanded panel; type: cell-based; details: Table 4, Group B Strep. (4 strains)
# Description: (§2) The number of strains tested is shown in parentheses below each organism. The average MIC is reported in μg/ml.
# Coag-neg. Staphylococci = experiment: MIC against an expanded panel; type: cell-based; details: Table 4, Coag-neg. Staphylococci (24 strains)
# Description: as §2
# JK Diptheroids = experiment: MIC against an expanded panel; type: cell-based; details: Table 4, JK Diptheroids (19 strains)
# Description: as §2
# Group A Strep. = experiment: MIC against an expanded panel; type: cell-based; details: Table 4, Group A Strep. (6 strains)
# Description: as §2
# Viridans = experiment: MIC against an expanded panel; type: cell-based; details: Table 4, Viridans (2 strains)
# Description: as §2
# Staphylococcus aureus = experiment: standard microtiter assay, minimum inhibitory concentration; type: cell-based; details: for MIC: Table 5 organism 1 S. aureus
# Outline: (§3)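 Standard microtiter broth assays, with MIC reported in μg/ml and averaged over several strains per species. The CWI-785 complex was tested, in some cases as HCl salts. Some runs used no serum, 50% human serum or 50% mouse serum.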
# Streptococcus faecalis = experiment: as above; type: cell-based
# Outline: as §3
# [1] = system: Staphylococcus saprophyticus; experiment: as above; type: cell-based; details: for MIC: Table 5 organism 6 S. saprophyticus
# Outline: (§4)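 Broth microtiter MIC (μg/ml) of CWI-785 antibiotic, as complex, individual components or HCl salts, against several staphylococcal strains. Some assays run without serum or in 50% human or 50% mouse serum.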
# [2] = system: Staphylococcus haemolyticus; experiment: as above; type: cell-based; details: for MIC: Table 5 organism 3 S. haemolyticus
# Outline: as §4
# [3] = system: Staphylococcus epidermidis; experiment: as above; type: cell-based
# Outline: as §4
# Streptococcus pyogenes = experiment: as above; type: cell-based; details: Table 2 test organism 11, Streptococcus pyogenes
# Description: Representative results of standard microtiter assays are reported in Tables 1, 2 and 3 which follow, as the minimum inhibitory concentration of antibiotic (μg/ml).
# In Table 1, test organisms 1-13 were different strains of Staphylococcus aureus, and 14-16 were different strains of Staphylococcus epidermidis. In Table 2, test organisms 1-5 were different strains of S. aureus; 6, 8, 12 and 14 were different strains of S. epidermidis; 7 was a Staphylococcus haemolyticus; 9 and 10 were different strains of Streptococcus faecalis; 11 was a Streptococcus pyogenes; and 13 was a Staphylococcus saprophyticus. In Table 3, test organisms 1-3 were different strains of S. aureus; 4 and 6 were different strains of S. epidermidis; 5 was a S. haemolyticus and 7 and 8 were different strains of Streptococcus faecalis. Except where individual components are indicated, the CWI-785 antibiotic employed was the CWI-785 complex; in some cases, HCl salts of the CWI-785 antibiotic were employed.
# STAPH. AUREUS HH 127 = experiment: prophylactic activity, dosing preinfection; type: in vivo, mice
# [4] = Table 4, S. aureus (30 strains)
# [5] = Table 4, Strep. faecalis (12 strains)
substance,measurement,setting,value
teicoplanin,ED50,S. aureus; S. aureus 2620 (24 × LD50) i.p.,6.0 mg/kg
same,ED50,S. aureus; S. aureus HH 127 (35 × LD50) i.p.,2.5 mg/kg
same,ED50,S. haemolyticus,> 100 mg/kg
same,ED50,S. epidermidis,< 1.25 mg/kg
same,MIC RANGE,Group B Strep.,0.1 to 1.6 µg/mL
same,MIC50,Coag-neg. Staphylococci,12.5 µg/mL
same,MIC RANGE,Coag-neg. Staphylococci,0.8 to 25 µg/mL
same,MIC50,JK Diptheroids,1.6 µg/mL
same,MIC RANGE,JK Diptheroids,0.2 to 3.1 µg/mL
same,MIC50,Group A Strep.,<= 0.025 μg/ml
same,MIC RANGE,Group A Strep.,<0.025 to 0.4 µg/mL
same,MIC RANGE,Viridans,0.05 to 0.1 µg/mL
same,minimum inhibitory concentration,"Staphylococcus aureus; Table 1 test organism 1, S. aureus strain",1.6 µg/mL
same,minimum inhibitory concentration,"Staphylococcus aureus; Table 1 test organism 2, S. aureus strain",1.6 µg/mL
same,minimum inhibitory concentration,"Staphylococcus aureus; Table 1 test organism 3, S. aureus strain",3.1 µg/mL
same,minimum inhibitory concentration,"Staphylococcus aureus; Table 1 test organism 4, S. aureus strain",1.6 µg/mL
same,minimum inhibitory concentration,"Staphylococcus aureus; Table 1 test organism 5, S. aureus strain",1.6 µg/mL
same,minimum inhibitory concentration,"Staphylococcus aureus; Table 1 test organism 6, S. aureus strain",1.6 µg/mL
same,minimum inhibitory concentration,"Staphylococcus aureus; Table 1 test organism 7, S. aureus strain",3.1 µg/mL
same,minimum inhibitory concentration,"Staphylococcus aureus; Table 1 test organism 8, S. aureus strain",6.3 µg/mL
same,minimum inhibitory concentration,"Staphylococcus aureus; Table 1 test organism 9, S. aureus strain",6.3 µg/mL
same,minimum inhibitory concentration,"Staphylococcus aureus; Table 1 test organism 10, S. aureus strain",6.3 µg/mL
same,minimum inhibitory concentration,"Staphylococcus aureus; Table 1 test organism 11, S. aureus strain",3.1 µg/mL
same,minimum inhibitory concentration,"Staphylococcus aureus; Table 1 test organism 12, S. aureus strain",3.1 µg/mL
same,minimum inhibitory concentration,"Staphylococcus aureus; Table 1 test organism 13, S. aureus strain",0.8 µg/mL
same,minimum inhibitory concentration,"Staphylococcus aureus; Table 2 test organism 1, S. aureus strain",3.1 µg/mL
same,minimum inhibitory concentration,"Staphylococcus aureus; Table 2 test organism 2, S. aureus strain",0.8 µg/mL
same,minimum inhibitory concentration,"Staphylococcus aureus; Table 2 test organism 3, S. aureus strain",0.4 µg/mL
same,minimum inhibitory concentration,"Staphylococcus aureus; Table 2 test organism 4, S. aureus strain",3.1 µg/mL
same,minimum inhibitory concentration,"Staphylococcus aureus; Table 2 test organism 5, S. aureus strain",1.6 µg/mL
same,MIC50,Staphylococcus aureus; [4],3.1 µg/mL
same,MIC RANGE,Staphylococcus aureus; [4],1.6 to 6.3 µg/mL
same,MIC,Staphylococcus aureus; 50% Hum. Serum,6.3 µg/mL
same,MIC,Staphylococcus aureus; 50% Mse. Serum,25.0 µg/mL
same,MIC,Staphylococcus aureus; No Serum,3.1 µg/mL
same,minimum inhibitory concentration,"Streptococcus faecalis; Table 2 test organism 9, Streptococcus faecalis strain",< 0.1 µg/mL
same,minimum inhibitory concentration,"Streptococcus faecalis; Table 2 test organism 10, Streptococcus faecalis strain",< 0.1 µg/mL
same,MIC50,Streptococcus faecalis; [5],<= 0.1 μg/ml
same,MIC RANGE,Streptococcus faecalis; [5],<=0.1-0.2 μg/ml
same,MBC50,"Streptococcus faecalis; Table 4, Strep. faecalis MBC50",6.3 µg/mL
same,MBC RANGE,"Streptococcus faecalis; Table 4, Strep. faecalis MBC50 column",1.6 to 25 µg/mL
same,MIC,"Streptococcus faecalis; Table 5 organism 7 S. faecalis, 50% Hum. Serum",6.3 µg/mL
same,MIC,"Streptococcus faecalis; Table 5 organism 7 S. faecalis, 50% Mse. Serum",1.6 µg/mL
same,MIC,"Streptococcus faecalis; Table 5 organism 7 S. faecalis, No Serum",<= 0.1 μg/ml
same,MIC,"Streptococcus faecalis; Table 5 organism 8 S. faecalis, 50% Hum. Serum",6.3 µg/mL
same,MIC,"Streptococcus faecalis; Table 5 organism 8 S. faecalis, 50% Mse. Serum",3.1 µg/mL
same,MIC,"Streptococcus faecalis; Table 5 organism 8 S. faecalis, No Serum",<= 0.1 μg/ml
same,minimum inhibitory concentration,"[1]; Table 2 test organism 13, Staphylococcus saprophyticus",1.6 µg/mL
same,MIC,[1]; 50% Hum. Serum,12.5 µg/mL
same,MIC,[1]; 50% Mse. Serum,1.6 µg/mL
same,MIC,[1]; No Serum,1.6 µg/mL
same,minimum inhibitory concentration,"[2]; Table 2 test organism 7, Staphylococcus haemolyticus",12.5 µg/mL
same,MIC,[2]; 50% Hum. Serum,50.0 µg/mL
same,MIC,[2]; 50% Mse. Serum,50.0 µg/mL
same,MIC,[2]; No Serum,12.5 µg/mL
same,minimum inhibitory concentration,"[3]; Table 1 test organism 14, S. epidermidis strain",1.6 µg/mL
same,minimum inhibitory concentration,"[3]; Table 1 test organism 15, S. epidermidis strain",12.5 µg/mL
same,minimum inhibitory concentration,"[3]; Table 1 test organism 16, S. epidermidis strain",6.3 µg/mL
same,minimum inhibitory concentration,"[3]; Table 2 test organism 6, S. epidermidis strain",12.5 µg/mL
same,minimum inhibitory concentration,"[3]; Table 2 test organism 8, S. epidermidis strain",12.5 µg/mL
same,minimum inhibitory concentration,"[3]; Table 2 test organism 12, S. epidermidis strain",12.5 µg/mL
same,minimum inhibitory concentration,"[3]; Table 2 test organism 14, S. epidermidis strain",3.1 µg/mL
same,MIC,"[3]; Table 5 organism 2 S. epidermidis, 50% Hum. Serum",50.0 µg/mL
same,MIC,"[3]; Table 5 organism 2 S. epidermidis, 50% Mse. Serum",50.0 µg/mL
same,MIC,"[3]; Table 5 organism 2 S. epidermidis, No Serum",12.5 µg/mL
same,MIC,"[3]; Table 5 organism 4 S. epidermidis, 50% Hum. Serum",50.0 µg/mL
same,MIC,"[3]; Table 5 organism 4 S. epidermidis, 50% Mse. Serum",25.0 µg/mL
same,MIC,"[3]; Table 5 organism 4 S. epidermidis, No Serum",12.5 µg/mL
same,MIC,"[3]; Table 5 organism 5 S. epidermidis, 50% Hum. Serum",> 100 µg/mL
same,MIC,"[3]; Table 5 organism 5 S. epidermidis, 50% Mse. Serum",<= 0.1 μg/ml
same,MIC,"[3]; Table 5 organism 5 S. epidermidis, No Serum",12.5 µg/mL
same,minimum inhibitory concentration,Streptococcus pyogenes,0.2 µg/mL
same,ED50,"STAPH. AUREUS HH 127; Table 8, vs Staph. aureus HH 127 (I.V.)",0.405 mg/kg
same,PERCENT SURVIVAL,"STAPH. AUREUS HH 127; Table 8: 40 mg/kg (I.V.), 6 hr preinfection",100%
